Test results from patent US11524966B1 (Valo Early Discovery, Inc., priority 2017, dated 2022).

Molecular target: T1, USP28 (His-tagged USP28-FL-mammalian) (Homo sapiens, UniProt Q96RU2)
T1 construct: Expression of USP28 (1-1077)-TEV-6*His (pTT5 vector); made in house; host or cells: Expi293f cells (pTT5 vector)
T1 sequence (Q96RU2 1-1077): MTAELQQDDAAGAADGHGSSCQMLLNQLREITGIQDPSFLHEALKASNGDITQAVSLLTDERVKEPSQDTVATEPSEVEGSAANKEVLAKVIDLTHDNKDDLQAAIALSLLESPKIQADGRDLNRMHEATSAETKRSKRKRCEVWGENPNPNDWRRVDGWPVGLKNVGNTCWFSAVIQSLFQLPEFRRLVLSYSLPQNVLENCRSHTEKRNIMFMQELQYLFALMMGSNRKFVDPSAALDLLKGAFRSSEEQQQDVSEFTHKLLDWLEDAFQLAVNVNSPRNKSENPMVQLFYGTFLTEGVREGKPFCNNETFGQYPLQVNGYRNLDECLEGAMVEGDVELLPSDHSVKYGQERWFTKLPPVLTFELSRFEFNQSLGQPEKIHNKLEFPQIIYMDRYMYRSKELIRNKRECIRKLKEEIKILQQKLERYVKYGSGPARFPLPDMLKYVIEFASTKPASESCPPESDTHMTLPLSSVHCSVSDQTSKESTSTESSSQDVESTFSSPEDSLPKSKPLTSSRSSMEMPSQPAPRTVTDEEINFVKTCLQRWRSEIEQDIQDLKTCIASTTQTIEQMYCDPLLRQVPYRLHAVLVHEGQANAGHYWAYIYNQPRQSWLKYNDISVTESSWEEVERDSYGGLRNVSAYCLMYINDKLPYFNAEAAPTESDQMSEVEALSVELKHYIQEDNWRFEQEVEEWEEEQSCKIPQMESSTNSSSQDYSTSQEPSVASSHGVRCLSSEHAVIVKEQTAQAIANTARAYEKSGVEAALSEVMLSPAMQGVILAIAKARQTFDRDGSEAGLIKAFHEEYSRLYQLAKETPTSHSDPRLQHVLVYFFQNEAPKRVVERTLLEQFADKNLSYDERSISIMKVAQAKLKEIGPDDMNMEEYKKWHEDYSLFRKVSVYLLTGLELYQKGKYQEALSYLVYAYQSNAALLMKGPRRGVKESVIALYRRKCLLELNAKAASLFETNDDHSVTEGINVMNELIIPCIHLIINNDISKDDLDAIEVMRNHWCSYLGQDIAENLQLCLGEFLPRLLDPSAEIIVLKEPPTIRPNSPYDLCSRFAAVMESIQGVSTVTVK
Experiment: Ubiquitin-Rhodamine 110 Assay for USP28 Activity, Example A-1(a)
Assay type: biochemical
Details: Ubiquitin-Rhodamine 110 assay, Example A-1(a); read-out: USP28 A-1(a) IC50 range
How it was run: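 Full-length His-tagged human USP28 (1-1077, Expi293f-expressed), […], with 25 nM Ub-Rh110 (<<Km) in pH 8.0 Tris buffer with BME, BGG, Triton X-100. 10-point dilutions (25 μM-1.3 nM), 45 min at room temperature, citric acid stop, fluorescence 485/535 nm; IC50 by 4-parameter fit.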

Compound | IC50 [µM]
Cc1ccc2c(N)c(C(=O)N[C@H]3COc4cc(N5CC[C@@H]6CC[C@H](N)C[C@@H]65)ccc4C3)sc2n1 [Example 234, N-[(3R)-7-[(3aS,6S,7aS)-6-amino-octahydro-1H-indol-1-yl]-3,4-dihydro-2H-1-benzopyran-3-yl]-3-amino-6-methylthieno[2,3-b]pyridine-2-carboxamide] | 0.001 to 0.05
CN[C@H]1CN(c2ccc3c(c2)OC[C@H](NC(=O)c2sc4nc(C)ccc4c2N)C3)C[C@@H]1OC [Example 212, 3-amino-N-[(3R)-7-[(3S,4S)-3-methoxy-4-(methylamino)pyrrolidin-1-yl]-3,4-dihydro-2H-1-benzopyran-3-yl]-6-methylthieno[2,3-b]pyridine-2-carboxamide] | 0.001 to 0.05
CCO[C@H]1CN(c2ccc3c(n2)CC[C@H](NC(=O)c2sc4nc(C)ccc4c2N)C3)C[C@H]1N [Example 255, 3-amino-N-[(6S)-2-[(3R,4S)-3-amino-4-ethoxypyrrolidin-1-yl]-5,6,7,8-tetrahydroquinolin-6-yl]-6-methylthieno[2,3-b]pyridine-2-carboxamide] | 0.05 to 0.2
COC[C@@H]1C[C@@H](N)CN1c1ccc2c(c1)OC[C@H](NC(=O)c1sc3nc(C)ccc3c1N)C2 [Example 260, 3-amino-N-[(3R)-7-[(25,4R)-4-amino-2-(methoxymethyl)pyrrolidin-1-yl]-3,4-dihydro-2H-1-benzopyran-3-yl]-6-methylthieno[2,3-b]pyridine-2-carboxamide] | 0.001 to 0.05
Cc1ccc2c(N)c(C(=O)N[C@H]3COc4cc(N5C[C@H](N)CC[C@@H]5C(F)(F)F)ccc4C3)sc2n1 [Example 244, 3-amino-N-[(3R)-7-[(2R,5R)-5-amino-2-(trifluoromethyl)piperidin-1-yl]-3,4-dihydro-2H-1-benzopyran-3-yl]-6-methylthieno[2,3-b]pyridine-2-carboxamide] | 0.001 to 0.05
CO[C@H]1CN(c2ccc3c(c2)CC[C@H](NC(=O)c2cnc4c(c2)[C@@H]2C[C@@H]2CN4)C3)C[C@@H]1N [Example 189, (6aS,7aR)-N-[(2S)-6-[(3S,4S)-3-amino-4-methoxypyrrolidin-1-yl]-1,2,3,4-tetrahydronaphthalen-2-yl]-5H,6H,6aH,7H,7aH-cyclopropa[c]1,8-naphthyridine-2-carboxamide] | 0.2 to 2
Cc1ccc2c(N)c(C(=O)N[C@H]3COc4cc(N5C[C@H](N)C(F)(F)C5)ccc4C3)sc2n1 [Example 256, 3-amino-N-[(3R)-7-[(4S)-4-amino-3,3-difluoropyrrolidin-1-yl]-3,4-dihydro-2H-1-benzopyran-3-yl]-6-methylthieno[2,3-b]pyridine-2-carboxamide] | 0.001 to 0.05
Cc1ccc2c(N)c(C(=O)N[C@H]3COc4cc(N5C[C@@H]6NCCC(F)(F)[C@@H]6C5)ccc4C3)sc2n1 [Example 237, N-[(3R)-7-[(4aR,7aR)-4,4-difluoro-octahydro-1H-pyrrolo[3,4-b]pyridin-6-yl]-3,4-dihydro-2H-1-benzopyran-3-yl]-3-amino-6-methylthieno[2,3-b]pyridine-2-carboxamide] | 0.001 to 0.05
N#Cc1c(N2CC3CCC(C2)N3)cc(F)c2c1CC[C@@H](NC(=O)c1cnc3c(c1)[C@@H]1C[C@@H]1CN3)C2 [Example 197, (6aS,7aR)-N-[(2R)-5-cyano-6-{3,8-diazabicyclo[3.2.1]octan-3-yl}-8-fluoro-1,2,3,4-tetrahydronaphthalen-2-yl]-5H,6H,6aH,7H,7aH-cyclopropa[c]1,8-naphthyridine-2-carboxamide] | > 2
Cc1ccc2c(N)c(C(=O)N[C@H]3COc4cc(N5CCO[C@@H]6CNC[C@@H]65)ccc4C3)sc2n1 [Example 185, N-[(3R)-7-[(4aS,7aR)-octahydropyrrolo[3,4-b]morpholin-4-yl]-3,4-dihydro-2H-1-benzopyran-3-yl]-3-amino-6-methylthieno[2,3-b]pyridine-2-carboxamide] | 0.001 to 0.05
CO[C@@H]1CN(c2ccc3c(n2)CC[C@H](NC(=O)c2sc4nc(C)ccc4c2N)C3)C[C@@]1(C)N [Example 240, 3-amino-N-[(6S)-2-[(3R,4R)-3-amino-4-methoxy-3-methylpyrrolidin-1-yl]-5,6,7,8-tetrahydroquinolin-6-yl]-6-methylthieno[2,3-b]pyridine-2-carboxamide] | 0.2 to 2
CO[C@H]1CN(c2cc3c(c(F)c2C#N)C[C@@H](NC(=O)c2sc4nc(C)ccc4c2N)CO3)C[C@@H]1N [Example 200] | 0.001 to 0.05
Cc1ccc2c(N)c(C(=O)N[C@H]3COc4cc(N5C[C@@H](N)C6(COC6)C5)ccc4C3)sc2n1 [Example 259, 3-amino-N-[(3R)-7-[(8S)-8-amino-2-oxa-6-azaspiro[3.4]octan-6-yl]-3,4-dihydro-2H-1-benzopyran-3-yl]-6-methylthieno[2,3-b]pyridine-2-carboxamide] | 0.001 to 0.05
